Like-named read-outs stand apart in the source and are kept apart here.
Assays:
SHP2 [1] = target: T1, SHP2 (Homo sapiens, UniProt Q06124); assay: biochemical; conditions: read-out: SHP2 inhibition (%)@0.1 μM
T1 sequence (Q06124 1-593): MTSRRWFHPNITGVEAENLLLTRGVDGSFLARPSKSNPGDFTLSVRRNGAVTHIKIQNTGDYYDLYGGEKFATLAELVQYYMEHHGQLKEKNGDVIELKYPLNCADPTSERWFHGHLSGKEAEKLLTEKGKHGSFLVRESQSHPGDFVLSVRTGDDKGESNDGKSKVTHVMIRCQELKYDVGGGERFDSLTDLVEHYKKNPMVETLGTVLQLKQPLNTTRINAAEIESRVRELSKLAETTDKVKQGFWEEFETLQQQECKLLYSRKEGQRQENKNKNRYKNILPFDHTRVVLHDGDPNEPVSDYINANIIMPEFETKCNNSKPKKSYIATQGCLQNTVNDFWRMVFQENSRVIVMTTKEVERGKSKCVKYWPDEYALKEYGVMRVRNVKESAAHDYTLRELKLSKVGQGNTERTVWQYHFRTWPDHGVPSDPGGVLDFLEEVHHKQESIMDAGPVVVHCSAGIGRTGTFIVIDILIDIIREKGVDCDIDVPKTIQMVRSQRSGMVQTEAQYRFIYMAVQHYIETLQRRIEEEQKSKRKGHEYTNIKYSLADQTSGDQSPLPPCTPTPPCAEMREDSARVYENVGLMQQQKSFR

SHP2 [2] = target: T1, SHP2; assay: Phosphatase assays (IC50), DiFMUP substrate
MV-4-11 = assay: Cell proliferation assay (MTS/PMS); assay type: cell-based; conditions: Homo sapiens, MV4-11
[3] = MV-4-11 cell proliferation, MTS/PMS readout at day 8, compounds added 24 hours after plating, read-out: IC50
[4] = SHP2 0.5 nM activated with dPEG8 peptide, DiFMUP 12 μM, 30 min

inhibition at 0.1 µM (SHP2 [1]) [%] | IC50 (SHP2 [2]) [nM] | IC50 (MV-4-11; [3]) [nM] | Structure (SMILES) | IC50 (MV-4-11) [nM] | IC50 (SHP2 [2]; [4]) [nM]
82 | 12 |  | N=C1c2cscc2CC12CCN(c1cnc(Sc3ccnc(N)c3Cl)c(N)n1)CC2 [Example 146, 3-((2-amino-3-chloropyridin-4-yl)thio)-6-(4-imino-4H,6H-spiro [cyclopenta[c]thiophene-5,4′-piperidin]-1′-yl)pyrazin-2-amine] |  | 
81 | 22 |  | CC(=O)N1CC(F)(F)c2c(Sc3ncc(N4CCC5(CC4)CC4CC4[C@H]5N)nc3N)cccc21 (stereo partly drawn) [Example 7, 1-(4-((3-amino-5-((2R)-2-aminospiro [bicyclo[3.1.0]hexane-3,4′-piperidin]-1′-yl)pyrazin-2-yl)thio)-3,3-difluoro-indolin-1-yl)ethan-1-one] |  | 
86 | 7 |  | Nc1nc(N2CCC3(CC2)Cc2nc(Cl)ccc2[C@H]3N)cnc1Sc1ccnc(N)c1Cl [Example 19, (S)-1′-(6-amino-5-((2-amino-3-chloropyridin-4-yl)thio)pyrazin-2-yl)-2-chloro-5,7-dihydrospiro[cyclopenta [b]pyridine-6,4′-piperidin]-5-amine] |  | 
 | 7 | 4 | Nc1nc(N2CCC3(CC2)Cc2ncccc2[C@H]3N)cnc1Sc1ccnc(N)c1Cl [Example 10, (S)-1′-(6-amino-5-((2-amino-3-chloropyridin-4-yl)thio)pyrazin-2-yl)-5,7-dihydrospiro [cyclopenta[b]pyridine-6,4′-piperidin]-5-amine] |  | 
87 |  |  | Nc1nc(N2CCC3(CC2)c2ccccc2C[C@H]3N)cnc1Sc1ccnc(N)c1Cl [Example 1, (R)-1′-(6-amino-5-((2-amino-3-chloropyridin-4-yl)thio)pyrazin-2-yl)-2,3-dihydrospiro[indene-1,4′-piperidin]-2-amine] |  | 8
75 | 8 |  | Nc1nc(N2CCC3(CC2)CC2CC2[C@H]3N)cnc1Sc1ccnc(N)c1Cl (stereo partly drawn) [Example 81, (2R)-1′-(6-amino-5-((2-amino-3-chloropyridin-4-yl)thio)pyrazin-2-yl)spiro [bicyclo[3.1.0]hexane-3,4′-piperidin]-2-amine] |  | 
88 | 4 | 7.4 | Nc1nc(N2CCC3(CC2)Cc2sc(Cl)nc2[C@H]3N)cnc1Sc1ccnc(N)c1Cl [Example 44, (S)-1′-(6-amino-5-((2-amino-3-chloropyridin-4-yl)thio)pyrazin-2-yl)-2-chloro-4,6-dihydro-spiro[cyclopenta[d]thiazole-5,4′-piperidin]-4-amine] |  | 
 | 14 |  | N[C@@H]1c2cccnc2CC12CCN(c1cnc(Sc3ccncc3)cn1)CC2 [Example 86, (S)-1′-(5-(pyridin-4-ylthio)pyrazin-2-yl)-5,7-dihydrospiro [cyclopenta [b]pyridine-6,4′-piperidin]-5-amine] |  | 

Structure (SMILES) | inhibition at 0.1 µM (SHP2 [1]) [%] | IC50 (SHP2 [2]) [nM] | IC50 (MV-4-11; [3]) [nM] | IC50 (MV-4-11) [nM] | IC50 (SHP2 [2]; [4]) [nM]
Nc1nc(N2CCC3(CC2)Cc2ccccc2[C@H]3N)cnc1Sc1ccnc(N)c1Cl [Example 2, (S)-1′-(6-amino-5-((2-amino-3-chloropyridin-4-yl)thio)pyrazin-2-yl)-1,3-dihydrospiro[indene-2,4′-piperidin]-1-amine] | 75 |  |  | 2.7 | 4
COc1ccc2c(c1)[C@@H](N)C1(CCN(c3cnc(Sc4ccnc(N)c4Cl)c(N)n3)CC1)C2 [Example 5, (S)-1′-(6-amino-5-((2-amino-3-chloropyridin-4-yl)thio)pyrazin-2-yl)-6-methoxy-1,3-dihydro spiro[indene-2,4′-piperidin]-1-amine] | 84 | 6 |  | 4.8 | 

Reference: US10988466B2, “Heterocyclic derivatives useful as SHP2 inhibitors” (Jacobio Pharmaceuticals Co., Ltd., priority 2017, dated 2021)
